Patent US20250312352A1, “GLP-1R MODULATING COMPOUNDS” (Gilead Sciences, Inc., priority 2021, published 2025)

molecular target: T1, GLP-1R (Homo sapiens, UniProt P43220); test: GLP-1R activation cAMP assay (Assay 1 or Assay 2); format: cell-based; settings: cAMP increase in CHO cells stably expressing GLP-1R; compounds run on one of the two cAMP assays
T1 construct: host or cells: CHO cells
Method: GLP-1R ACTIVATION—cAMP Assay 1
GLP-1R activation by compounds of the present disclosure was quantified by measuring cAMP increase in CHO cells stably expressing GLP-1R (MultiSpan product #C1267-1a). The cells were harvested and plated in growth medium (DMEM/F-12 (Corning product #10-090-CV) supplemented with 10% FBS (HyClone product #SH30071-03), penicillin/streptomycin (Corning product #30-002CI) and 10 μg/ml puromycin (Gibco product #A11138-03)) at 1,000 cells/well in a 384-well plate (Greiner product #781080). The cells were then incubated overnight at 37° C., 5% CO2. The next day, the medium was removed and the cells were washed with DPBS (Corning product #21-031-CM) before adding the assay medium (HBSS, Corning product #21-023-CV) with 20 mM Hepes (Gibco product #15630-080) and 0.1% BSA (Rockland Immunochemicals product #BSA-1000)). Following the medium change, the cells were incubated for 1 hour at 37° C., 5% CO2. The tested GLP-1 compound was added to the cells in a 10-point dose response followed by a 30-minute incubation at 37° C., 5% CO2. cAMP concentration increase was then detected using Cisbio's cAMP Gs Dynamic Kit (product #62AM4PEC) according to the manufacturer's protocol. The response was plotted against the log of the agonist concentration and fitted to a sigmoidal equation to determine the EC50.
GLP-1R ACTIVATION—cAMP Assay 2
GLP-1R activation by small molecule agonists was quantified by measuring cAMP increase in CHO cells stably expressing GLP-1R (MultiSpan product #C1267-1a). 50 nL of agonists were pre-spotted in a 10-point dose response onto 384-well plate (Corning product #CL3826) using the Labcyte Echo System.

T1 sequence (P43220 24-463): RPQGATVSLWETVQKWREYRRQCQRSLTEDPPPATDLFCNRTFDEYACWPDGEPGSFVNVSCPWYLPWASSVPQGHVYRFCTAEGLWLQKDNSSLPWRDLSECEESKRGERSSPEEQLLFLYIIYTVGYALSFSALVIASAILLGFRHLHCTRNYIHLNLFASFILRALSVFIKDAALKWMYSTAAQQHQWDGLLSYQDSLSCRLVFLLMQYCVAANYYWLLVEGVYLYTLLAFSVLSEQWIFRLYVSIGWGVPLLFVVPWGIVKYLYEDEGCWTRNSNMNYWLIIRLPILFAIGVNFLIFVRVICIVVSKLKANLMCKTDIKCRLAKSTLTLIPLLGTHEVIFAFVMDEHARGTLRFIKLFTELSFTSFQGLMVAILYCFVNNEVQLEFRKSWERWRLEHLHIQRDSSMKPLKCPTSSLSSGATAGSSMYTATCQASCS

EC50 | Structure (SMILES)
186 pM | CNC(=O)c1cc(Cl)c(COc2cc(-c3cc(F)c(Cc4nc5c(F)cc(C(=O)O)cc5n4C[C@@H]4CCO4)cc3F)ccc2F)cn1 [Example 388, (S)-2-((3′-((4-chloro-6-(methylcarbamoyl)pyridin-3-yl)methoxy)-2,4′,5-trifluoro-[1,1′-biphenyl]-4-yl)methyl)-4-fluoro-1-(oxetan-2-ylmethyl)-1H-benzo[d]imidazole-6-carboxylic acid]
385 pM | O=C(O)c1ccc2nc(Cc3cc(F)c(-c4ccc(F)c(OCc5ncc(C(F)F)s5)n4)cc3F)n(C[C@@H]3CCO3)c2c1 [Example 406, (S)-2-(4-(6-((5-(difluoromethyl)thiazol-2-yl)methoxy)-5-fluoropyridin-2-yl)-2,5-difluorobenzyl)-1-(oxetan-2-ylmethyl)-1H-benzo[d]imidazole-6-carboxylic acid]
560 pM | Cn1ccc(CNC(=O)c2cc(Cl)c(COc3cccc(-c4cc(F)c(Cc5nc6ccc(C(=O)O)cc6n5C[C@@H]5CCO5)cc4F)n3)cn2)n1 [Example 366, (S)-2-(4-(6-((4-chloro-6-(((1-methyl-1H-pyrazol-3-yl)methyl)carbamoyl)pyridin-3-yl)methoxy)pyridin-2-yl)-2,5-difluorobenzyl)-1-(oxetan-2-ylmethyl)-1H-benzo[d]imidazole-6-carboxylic acid]
443 pM | CCOc1nnc(COc2nc(-c3cc(F)c(Cc4nc5ccc(C(=O)O)cc5n4CC4(CF)CC4)cc3F)ccc2F)s1 [Example 256, 2-(4-(6-((5-ethoxy-1,3,4-thiadiazol-2-yl)methoxy)-5-fluoropyridin-2-yl)-2,5-difluorobenzyl)-1-((1-(fluoromethyl)cyclopropyl)methyl)-1H-benzo[d]imidazole-6-carboxylic acid]
41 pM | CC1(C)COC[C@H]1n1c(Cc2ccc(-c3cccc(OCc4ccc(C#N)cc4F)n3)cc2F)nc2c(F)cc(C(=O)O)cc21 [Example 440, (S)-2-(4-(6-((4-cyano-2-fluorobenzyl)oxy)pyridin-2-yl)-2-fluorobenzyl)-1-(4,4-dimethyltetrahydrofuran-3-yl)-4-fluoro-1H-benzo[d]imidazole-6-carboxylic acid]
497 pM | CCOc1nnc(COc2nc(-c3ccc(Cc4nc5ccc(C(=O)O)cc5n4[C@@H]4COCC4(C)C)c(F)c3)ccc2F)s1 [Example 397, (S)-1-(4,4-dimethyltetrahydrofuran-3-yl)-2-(4-(6-((5-ethoxy-1,3,4-thiadiazol-2-yl)methoxy)-5-fluoropyridin-2-yl)-2-fluorobenzyl)-1H-benzo[d]imidazole-6-carboxylic acid]
27 pM | COc1nnc(COc2cccc(-c3cc(F)c(Cc4nc5c(F)cc(C(=O)O)cc5n4[C@@H]4COCC4(C)C)cc3F)n2)s1 [Example 345, (S)-2-(2,5-difluoro-4-(6-((5-methoxy-1,3,4-thiadiazol-2-yl)methoxy)pyridin-2-yl)benzyl)-1-(4,4-dimethyltetrahydrofuran-3-yl)-4-fluoro-1H-benzo[d]imidazole-6-carboxylic acid]
235 pM | O=C(O)c1cc(F)c2nc(Cc3cc(F)c(-c4cccc(OCc5ncc(C#Cc6cncs6)cc5F)n4)cc3F)n(C[C@@H]3CCO3)c2c1 [Example 390, (S)-2-(2,5-difluoro-4-(6-((3-fluoro-5-(thiazol-5-ylethynyl)pyridin-2-yl)methoxy)pyridin-2-yl)benzyl)-4-fluoro-1-(oxetan-2-ylmethyl)-1H-benzo[d]imidazole-6-carboxylic acid]
315 pM | COc1nnc(COc2cccc(-c3cc(F)c(Cc4nc5c(F)cc(C(=O)O)cc5n4CC4(CF)CC4)cc3F)n2)s1 [Example 411, 2-(2,5-difluoro-4-(6-((5-methoxy-1,3,4-thiadiazol-2-yl)methoxy)pyridin-2-yl)benzyl)-4-fluoro-1-((1-(fluoromethyl)cyclopropyl)methyl)-1H-benzo[d]imidazole-6-carboxylic acid]
195 pM | CC1(C)COC[C@H]1n1c(Cc2cc(F)c(-c3cccc(OCc4nnc(C5CC5)s4)n3)cc2F)nc2ccc(C(=O)O)cc21 [Example 431, (S)-2-(4-(6-((5-cyclopropyl-1,3,4-thiadiazol-2-yl)methoxy)pyridin-2-yl)-2,5-difluorobenzyl)-1-(4,4-dimethyltetrahydrofuran-3-yl)-1H-benzo[d]imidazole-6-carboxylic acid]
622 pM | Cc1nc(C)c(COc2cccc(-c3cc(F)c(Cc4nc5ccc(C(=O)O)cc5n4C[C@@H]4CCO4)cc3F)n2)s1 [Example 354, (S)-2-(4-(6-((2,4-dimethylthiazol-5-yl)methoxy)pyridin-2-yl)-2,5-difluorobenzyl)-1-(oxetan-2-ylmethyl)-1H-benzo[d]imidazole-6-carboxylic acid]
499 pM | O=C(O)c1ccc2nc(Cc3cc(F)c(-c4cccc(OCc5ncc(C#Cc6cscn6)cc5F)n4)cc3F)n(C[C@@H]3CCO3)c2c1 [Example 292, (S)-2-(2,5-difluoro-4-(6-((3-fluoro-5-(thiazol-4-ylethynyl)pyridin-2-yl)methoxy)pyridin-2-yl)benzyl)-1-(oxetan-2-ylmethyl)-1H-benzo[d]imidazole-6-carboxylic acid]

The remaining lines, values behind:

Structure (SMILES) | EC50
NC(=O)c1ccc(COc2cccc(-c3cc(F)c(Cc4nc5ccc(C(=O)O)cc5n4C[C@@H]4CCO4)cc3F)n2)nc1 [Example 248, 2-[[4-[6-[(5-carbamoyl-2-pyridyl)methoxy]-2-pyridyl]-2,5-difluoro-phenyl]methyl]-3-[[(2S)-oxetan-2-yl]methyl]benzimidazole-5-carboxylic acid] | 5610 pM
COc1cc(C#Cc2cnn(C)c2)ncc1COc1cccc(-c2cc(F)c(Cc3nc4ccc(C(=O)O)cc4n3C[C@@H]3CCO3)cc2F)n1 [Example 145, (S)-2-(2,5-difluoro-4-(6-((4-methoxy-6-((1-methyl-1H-pyrazol-4-yl)ethynyl)pyridin-3-yl)methoxy)pyridin-2-yl)benzyl)-1-(oxetan-2-ylmethyl)-1H-benzo[d]imidazole-6-carboxylic acid] | 250 pM
O=C(O)c1ccc2nc(Cc3cc(F)c(-c4cccc(OCc5ccn(-c6ccc(F)cc6)n5)n4)cc3F)n(C[C@@H]3CCO3)c2c1 [Example 62, (S)-2-(2,5-difluoro-4-(6-((1-(4-fluorophenyl)-1H-pyrazol-3-yl)methoxy)pyridin-2-yl)benzyl)-1-(oxetan-2-ylmethyl)-1H-benzo[d]imidazole-6-carboxylic acid] | 1980 pM
O=C(O)c1ccc2nc(Cc3cc(F)c(-c4cccc(OCc5ncc(-c6cnn(C7COC7)c6)s5)n4)cc3F)n(C[C@@H]3CCO3)c2c1 [Example 80, (S)-2-(2,5-difluoro-4-(6-((5-(1-(oxetan-3-yl)-1H-pyrazol-4-yl)thiazol-2-yl)methoxy)pyridin-2-yl)benzyl)-1-(oxetan-2-ylmethyl)-1H-benzo[d]imidazole-6-carboxylic acid] | 190 pM
O=C(O)c1ccc2nc(Cc3cc(F)c(-c4cccc(OCc5cnc(-c6cnn(C7COC7)c6)cc5F)n4)cc3F)n(C[C@@H]3CCO3)c2c1 [Example 162, (S)-2-(2,5-difluoro-4-(6-((4-fluoro-6-(1-(oxetan-3-yl)-1H-pyrazol-4-yl)pyridin-3-yl)methoxy)pyridin-2-yl)benzyl)-1-(oxetan-2-ylmethyl)-1H-benzo[d]imidazole-6-carboxylic acid] | 160 pM
O=C(O)c1ccc2nc(Cc3cc(F)c(-c4cccc(OCc5ccn(-c6cnn(C(F)F)c6)n5)n4)cc3F)n(C[C@@H]3CCO3)c2c1 [Example 83, (S)-2-(4-(6-((1′-(difluoromethyl)-1′H-[1,4′-bipyrazol]-3-yl)methoxy)pyridin-2-yl)-2,5-difluorobenzyl)-1-(oxetan-2-ylmethyl)-1H-benzo[d]imidazole-6-carboxylic acid] | 3510 pM
COCCn1c(Cc2cc(F)c(-c3cccc(OCc4ccc(C#Cc5cncn5C)cc4F)n3)cc2F)nc2ccc(C(=O)O)cc21 [Example 233, 2-(2,5-difluoro-4-(6-((2-fluoro-4-((1-methyl-1H-imidazol-5-yl)ethynyl)benzyl)oxy)pyridin-2-yl)benzyl)-1-(2-methoxyethyl)-1H-benzo[d]imidazole-6-carboxylic acid] | 1200 pM
O=C(O)c1ccc2nc(Cc3cc(F)c(-c4cccc(OCc5nc6ccccc6s5)n4)cc3F)n(C[C@@H]3CCO3)c2c1 [Example 34, (S)-2-(4-(6-(benzo[d]thiazol-2-ylmethoxy)pyridin-2-yl)-2,5-difluorobenzyl)-1-(oxetan-2-ylmethyl)-1H-benzo[d]imidazole-6-carboxylic acid] | 200 pM
CC1(C#Cc2ccc(COc3cccc(-c4cc(F)c(Cc5nc6ccc(C(=O)O)cc6n5C[C@@H]5CCO5)cc4F)n3)s2)COC1 [Example 113, (S)-2-(2,5-difluoro-4-(6-((5-((3-methyloxetan-3-yl)ethynyl)thiophen-2-yl)methoxy)pyridin-2-yl)benzyl)-1-(oxetan-2-ylmethyl)-1H-benzo[d]imidazole-6-carboxylic acid] | 160 pM
